Assay results published in patent US10669283B2, “Compound and pharmacologically acceptable salt thereof” (MEIJI SEIKA PHARMA CO., LTD., priority 2016, dated 2020).

System: PDE4
Experiment: PDE4 inhibition, scintillation proximity assay (SPA);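 note: A below 100 nM B 100 to below 1000 nM C 1000 nM or more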
Type: biochemical
Details: scintillation proximity assay (SPA); evaluated as classes A, B, C; read-out: PDE4 Inhibitory Activity (concentration for the inhibition rate of 50%)
Summary of the method: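 Scintillation proximity read-out: [2,8-3H]-cAMP hydrolysis by PDE4 ran 120 min at room temperature in Tris-HCl pH 7.4 buffer with 8.3 mM MgCl2, 1.7 mM EGTA and 3 mg/mL BSA. Bead-bound product (YSi-SPA with ZnSO4, 15 min) counted; blank lacks enzyme, control has DMSO only.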

| Compound | IC50 [nM] |
| --- | --- |
| CC(C)(O)C(C)(C)OC(c1ccc(-c2nccs2)c2oc(N3CC4CC(C3)N4)nc12)C(F)(F)F (stereo not drawn) [Example 280, 3-(1-(2-(3,6-Diazabicyclo[3.1.1]heptan-3-yl)-7-(thiazol-2-yl)benzo[d]oxazol-4-yl)-2,2,2-trifluoroethoxy)-2,3-dimethylbutan-2-ol] | < 100 |
| O=C(O)c1cc(-c2nccs2)c2oc(N3CC4CC(C3)N4)nc2c1OC(F)(F)F [Example 190, 2-(3,6-Diazabicyclo[3.1.1]heptan-3-yl)-7-(thiazol-2-yl)-4-(trifluoromethoxy)benzo[d]oxazole-5-carboxylic acid] | > 1000 |
| Clc1ccc(-c2nccs2)c2oc(N3CC4CCCC(C3)N4)nc12 [Example 38, 2-(3,9-Diazabicyclo[3.3.1]nonan-3-yl)-4-chloro-7-(thiazol-2-yl)benzo[d]oxazole] | < 100 |
| FC(F)(F)c1ccc(-c2nccs2)c2oc(N3CC4CC(C3)N4)nc12 [Example 32, 2-(3,6-Diazabicyclo[3.1.1]heptan-3-yl)-7-(thiazol-2-yl)-4-(trifluoromethyl)benzo[d]oxazole] | < 100 |
| Clc1ccc(-c2nccs2)c2oc(N3CC4CC(C3)N4)nc12 [Example 37, 2-(3,6-Diazabicyclo[3.1.1]heptan-3-yl)-4-chloro-7-(thiazol-2-yl)benzo[d]oxazole] | < 100 |
| CC(C)(O)c1cc(-c2nccs2)c2oc(N3CC4CC(C3)N4)nc2c1 [Example 173, 2-(2-(3,6-Diazabicyclo[3.1.1]heptan-3-yl)-7-(thiazol-2-yl)benzo[d]oxazol-5-yl)propan-2-ol] | < 100 |
| FC(F)(F)COC(c1cc(-c2nccs2)c2oc(N3CC4CC(C3)N4)nc2c1)C(F)(F)F (stereo not drawn) [Example 151, 2-(3,6-Diazabicyclo[3.1.1]heptan-3-yl)-7-(thiazol-2-yl)-5-(2,2,2-trifluoro-1-(2,2,2-trifluoroethoxy)ethyl)benzo[d]oxazole] | < 100 |
| COC(C)c1cc(-c2nccs2)c2oc(N3CC4CC(C3)N4)nc2c1OC(F)(F)F (stereo not drawn) [Example 211, 2-(3,6-Diazabicyclo[3.1.1]heptan-3-yl)-5-(1-methoxyethyl)-7-(thiazol-2-yl)-4-(trifluoromethoxy)benzo[d]oxazole] | < 100 |
| O=C(c1cc(-c2nccs2)c2oc(N3CC4CCC(C3)N4)nc2c1)N1CCC1 [Example 97, (2-(3,8-Diazabicyclo[3.2.1]octan-3-yl)-7-(thiazol-2-yl)benzo[d]oxazol-5-yl)(azetidin-1-yl)methanone] | < 100 |
| COC(C)(c1cc(-c2nccs2)c2oc(N3CC4CC(C3)N4)nc2c1)C(F)(F)F (stereo not drawn) [Example 103, 2-(3,6-Diazabicyclo[3.1.1]heptan-3-yl)-7-(thiazol-2-yl)-5-(1,1,1-trifluoro-2-methoxypropan-2-yl)benzo[d]oxazole] | < 100 |
| N#CCOc1cc(-c2nccs2)c2oc(N3CC4CCC(C3)N4)nc2c1 [Example 73, 2-((2-(3,8-Diazabicyclo[3.2.1]octan-3-yl)-7-(thiazol-2-yl)benzo[d]oxazol-5-yl)oxy)acetonitrile] | < 100 |
| NS(=O)(=O)c1cc(-c2nccs2)c2oc(N3CC4CC(C3)N4)nc2c1 [Example 58, 2-(3,6-Diazabicyclo[3.1.1]heptan-3-yl)-7-(thiazol-2-yl)benzo[d]oxazole-5-sulfonamide] | < 100 |
| FC(F)(F)c1c(Cl)cc(-c2ccccn2)c2oc(N3CC4CC(C3)N4)nc12 [Example 13, 2-(3,6-Diazabicyclo[3.1.1]heptan-3-yl)-5-chloro-7-(pyridin-2-yl)-4-(trifluoromethyl)benzo[d]oxazole] | < 100 |
| COC(C)(c1cc(-c2nccs2)c2oc(N3CC4CCCC(C3)N4)nc2c1)C(F)(F)F (stereo not drawn) [Example 162] | < 100 |
| COC(C)c1cc(-c2nccs2)c2oc(N3CC4CC(C3)N4)nc2c1C(F)(F)F (stereo not drawn) [Example 185, 2-(3,6-Diazabicyclo[3.1.1]heptan-3-yl)-5-(1-methoxyethyl)-7-(thiazol-2-yl)-4-(trifluoromethyl)benzo[d]oxazole] | < 100 |
| CC(C)(O)COC(c1ccc(-c2nccs2)c2oc(N3CC4CC(C3)N4)nc12)C(F)F (stereo not drawn) [Example 127, 1-(1-(2-(3,6-Diazabicyclo[3.1.1]heptan-3-yl)-7-(thiazol-2-yl)benzo[d]oxazol-4-yl)-2,2-difluoroethoxy)-2-methylpropan-2-ol] | < 100 |
| OC1(c2cc(-c3nccs3)c3oc(N4CC5CC(C4)N5)nc3c2OC(F)(F)F)CC1 [Example 269, 1-(2-(3,6-Diazabicyclo[3.1.1]heptan-3-yl)-7-(thiazol-2-yl)-4-(trifluoromethoxy)benzo[d]oxazol-5-yl)cyclopropan-1-ol] | < 100 |
| COC(C)(C)c1cc(-c2nccs2)c2oc(N3CC4CC(C3)N4)nc2c1C(F)(F)F [Example 176, 2-(3,6-Diazabicyclo[3.1.1]heptan-3-yl)-5-(2-methoxypropan-2-yl)-7-(thiazol-2-yl)-4-(trifluoromethyl)benzo[d]oxazole] | < 100 |

| Compound | IC50 [nM] |
| --- | --- |
| CC(O)(c1ccc(-c2nccs2)c2oc(N3CC4CC(C3)N4)nc12)C(F)(F)F (stereo not drawn) [Example 271, 2-(2-(3,6-Diazabicyclo[3.1.1]heptan-3-yl)-7-(thiazol-2-yl)benzo[d]oxazol-4-yl)-1,1,1-trifluoropropan-2-ol] | < 100 |
| COC(C)c1ccc(-c2nccs2)c2oc(N3CC4CCCC(C3)N4)nc12 (stereo not drawn) [Example 243, 2-(3,9-Diazabicyclo[3.3.1]nonan-3-yl)-4-(1-methoxyethyl)-7-(thiazol-2-yl)benzo[d]oxazole] | < 100 |
| OC(c1ccc(-c2nccs2)c2oc(N3CC4CCC(C3)N4)nc12)C(F)(F)F (stereo not drawn) [Example 119, 1-(2-(3,8-Diazabicyclo[3.2.1]octan-3-yl)-7-(thiazol-2-yl)benzo[d]oxazol-4-yl)-2,2,2-trifluoroethan-1-ol] | < 100 |
| FC(F)(F)Oc1cc(-c2nccs2)c2oc(N3CC4CCCC(C3)N4)nc2c1 [Example 55, 2-(3,9-Diazabicyclo[3.3.1]nonan-3-yl)-7-(thiazol-2-yl)-5-(trifluoromethoxy)benzo[d]oxazole] | < 100 |
| CC(C)(O)C(F)(F)OC(c1ccc(-c2nccs2)c2oc(N3CC4CC(C3)N4)nc12)C(F)(F)F (stereo not drawn) [Example 257, 1-(1-(2-(3,6-Diazabicyclo[3.1.1]heptan-3-yl)-7-(thiazol-2-yl)benzo[d]oxazol-4-yl)-2,2,2-trifluoroethoxy)-1,1-difluoro-2-methylpropan-2-ol] | < 100 |
| CCOC(=O)c1cc(-c2nccs2)c2oc(N3CC4CCC(C3)N4)nc2c1 [Example 86, Ethyl 2-(3,8-diazabicyclo[3.2.1]octan-3-yl)-7-(thiazol-2-yl) benzo[d]oxazole-5-carboxylate] | < 100 |
| CC(=O)c1cc(-c2nccs2)c2oc(N3CC4CCC(C3)N4)nc2c1C(F)(F)F [Example 179, 1-(2-(3,8-Diazabicyclo[3.2.1]octan-3-yl)-7-(thiazol-2-yl)-4-(trifluoromethyl)benzo[d]oxazol-5-yl)ethan-1-one] | < 100 |
| OCc1cc(-c2nccs2)c2oc(N3CC4CCC(C3)N4)nc2c1C(F)(F)F [Example 170, (2-(3,8-Diazabicyclo[3.2.1]octan-3-yl)-7-(thiazol-2-yl)-4-(trifluoromethyl)benzo[d]oxazol-5-yl)methanol] | < 100 |
| CSc1cc(-c2nccs2)c2oc(N3CC4CC(C3)N4)nc2c1 [Example 40, 2-(3,6-Diazabicyclo[3.1.1]heptan-3-yl)-5-(methylthio)-7-(thiazol-2-yl)benzo[d]oxazole] | < 100 |
| OCC(F)(F)Oc1ccc(-c2cscn2)c2oc(N3CC4CCC(C3)N4)nc12 [Example 312, 2-((2-(3,8-Diazabicyclo[3.2.1]octan-3-yl)-7-(thiazol-4-yl)benzo[d]oxazol-4-yl)oxy)-2,2-difluoroethan-1-ol] | < 100 |
| CC(O)COC(c1cc(-c2nccs2)c2oc(N3CC4CCC(C3)N4)nc2c1)C(F)(F)F (stereo not drawn) [Example 155, 1-(1-(2-(3,8-Diazabicyclo[3.2.1]octan-3-yl)-7-(thiazol-2-yl)benzo[d]oxazol-5-yl)-2,2,2-trifluoroethoxy)propan-2-ol] | < 100 |
| CN(C)C(=O)c1ccc(-c2nccs2)c2oc(N3CC4CCC(C3)N4)nc12 [Example 115, 2-(3,8-Diazabicyclo[3.2.1]octan-3-yl)-N,N-dimethyl-7-(thiazol-2-yl)benzo[d]oxazole-4-carboxamide] | < 100 |
| C[C@H](O)COc1ccc(-c2nccs2)c2oc(N3CC4CC(C3)N4)nc12 [Example 260, (2S)-1-((2-(3,6-diazabicyclo[3.1.1]heptan-3-yl)-7-(thiazol-2-yl)benzo[d]oxazol-4-yl)oxy)propan-2-ol] | < 100 |
| CC(=O)Nc1ccc(-c2nccs2)c2oc(N3CC4CC(C3)N4)nc12 [Example 35, N-(2-(3,6-diazabicyclo[3.1.1]heptan-3-yl)-7-(thiazol-2-yl)benzo[d]oxazol-4-yl)acetamide] | 100 to 1000 |
| CC(O)COC(c1ccc(-c2nccs2)c2oc(N3CC4CC(C3)N4)nc12)C(F)(F)F (stereo not drawn) [Example 261, 1-(1-(2-(3,6-Diazabicyclo[3.1.1]heptan-3-yl)-7-(thiazol-2-yl)benzo[d]oxazol-4-yl)-2,2,2-trifluoroethoxy)propan-2-ol] | < 100 |
| CC(C)c1cc(-c2nccs2)c2oc(N3CC4COCC(C3)N4)nc2c1 [Example 23, 7-(5-Isopropyl-7-(thiazol-2-yl)benzo[d]oxazol-2-yl)-3-oxa-7,9-diazabicyclo[3.3.1]nonane] | 100 to 1000 |
| OC(O)(c1ccc(-c2nccs2)c2oc(N3CC4CCC(C3)N4)nc12)C(F)(F)F [Example 233, 1-(2-(3,8-Diazabicyclo[3.2.1]octan-3-yl)-7-(thiazol-2-yl)benzo[d]oxazol-4-yl)-2,2,2-trifluoroethane-1,1-diol] | < 100 |
| CC(C)(O)c1cc(-c2nccs2)c2oc(N3CC4CCC(C3)N4)nc2c1C(F)(F)F [Example 177, 2-(2-(3,8-Diazabicyclo[3.2.1]octan-3-yl)-7-(thiazol-2-yl)-4-(trifluoromethyl)benzo[d]oxazol-5-yl)propan-2-ol] | < 100 |
